Laboratory results reported in US20230026271A1, “Piperazine Compounds for Inhibiting CPS1” (Eisai R&D Management Co., Ltd., priority 2019, published 2023).

Molecular target: T1, CPS1 (Homo sapiens, UniProt P31327)
T1 construct: The full length, human CPS1 gene was cloned into pFastBac HTA; His6 (from the pFastBac HTA vector); made in house; host or cells: SF21 insect cells (baculovirus, Bac-to-bac)
T1 sequence (P31327 39-1500): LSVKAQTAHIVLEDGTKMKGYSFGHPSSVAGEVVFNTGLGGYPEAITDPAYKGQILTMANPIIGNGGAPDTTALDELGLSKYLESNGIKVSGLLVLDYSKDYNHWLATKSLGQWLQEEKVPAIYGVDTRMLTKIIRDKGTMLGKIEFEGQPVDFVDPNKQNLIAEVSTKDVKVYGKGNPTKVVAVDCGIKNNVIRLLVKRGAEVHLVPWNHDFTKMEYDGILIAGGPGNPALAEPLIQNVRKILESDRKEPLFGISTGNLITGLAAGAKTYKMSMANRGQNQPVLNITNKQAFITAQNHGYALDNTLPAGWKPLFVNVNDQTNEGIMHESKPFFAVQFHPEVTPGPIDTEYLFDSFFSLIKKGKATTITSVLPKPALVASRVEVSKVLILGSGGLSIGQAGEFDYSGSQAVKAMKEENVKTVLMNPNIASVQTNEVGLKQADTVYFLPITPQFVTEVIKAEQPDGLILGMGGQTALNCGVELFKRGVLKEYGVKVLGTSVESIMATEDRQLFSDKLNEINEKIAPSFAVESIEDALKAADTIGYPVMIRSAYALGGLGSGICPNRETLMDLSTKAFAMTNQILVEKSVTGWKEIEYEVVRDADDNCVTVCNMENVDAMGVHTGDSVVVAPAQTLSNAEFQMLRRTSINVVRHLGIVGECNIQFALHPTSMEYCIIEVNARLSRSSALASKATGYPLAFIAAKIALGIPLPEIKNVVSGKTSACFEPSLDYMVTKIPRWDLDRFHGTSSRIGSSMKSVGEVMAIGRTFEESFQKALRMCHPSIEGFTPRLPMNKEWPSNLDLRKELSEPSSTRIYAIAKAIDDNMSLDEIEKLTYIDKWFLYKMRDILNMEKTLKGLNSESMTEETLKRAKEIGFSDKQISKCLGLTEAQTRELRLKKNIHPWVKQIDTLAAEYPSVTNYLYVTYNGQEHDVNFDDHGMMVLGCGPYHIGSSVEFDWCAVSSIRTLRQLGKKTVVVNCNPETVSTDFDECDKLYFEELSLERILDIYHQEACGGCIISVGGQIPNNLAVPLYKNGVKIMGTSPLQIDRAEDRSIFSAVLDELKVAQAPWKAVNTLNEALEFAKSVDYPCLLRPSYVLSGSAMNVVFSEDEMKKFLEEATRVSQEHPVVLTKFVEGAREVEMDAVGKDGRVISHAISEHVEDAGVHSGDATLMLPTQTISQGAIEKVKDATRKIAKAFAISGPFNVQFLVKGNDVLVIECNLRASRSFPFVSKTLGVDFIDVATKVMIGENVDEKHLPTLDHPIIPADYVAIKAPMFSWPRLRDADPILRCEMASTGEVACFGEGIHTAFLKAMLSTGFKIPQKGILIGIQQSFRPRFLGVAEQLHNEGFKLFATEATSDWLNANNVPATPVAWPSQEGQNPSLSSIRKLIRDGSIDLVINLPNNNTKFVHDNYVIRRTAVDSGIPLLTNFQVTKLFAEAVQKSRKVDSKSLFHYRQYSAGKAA
Assay: ADP-Glo endpoint assay measuring the ATPase activity of CPS1
Type: biochemical
Settings: geometric mean of a minimum of two values; 50 nM CPS1, 10 μM ATP, 0.2 mM NAG, 60 min at room temperature; read-out: ADPGlo IC50
Method: CPS1 was expressed and purified from SF21 insect cells. The full length, human CPS1 gene was cloned into pFastBac HTA and baculovirus was generated using the Bac-to-bac expression system from Invitrogen. P3 virus was used to infect SF21 insect cells at a density of 1.5E6 cells/mL at an MOI of 2. Cells were harvested by centrifugation after 60 hrs and the cell pellet resuspended in lysis buffer (50 mM glycyl glycine pH 7.4, 20 mM KCl, 1 mM TCEP, 10% glycerol and 20 mM imidazole with Roche protease inhibitor tablet) before being lysed with 40 strokes of a Dounce homogenizer on ice. The insoluble fraction of the lysate was then cleared by centrifugation at 30,000 rpm for 30 min. 40 mL of supernatant was mixed with 2 mL of Ni NTA beads for 45 min at 4° C. in a 50 mL conical tube.
The beads were washed with 40 mL of wash buffer (50 mM glycyl glycine pH 7.4, 500 mM NaCl, 1 mM TCEP, 10% glycerol and 50 mM imidazole) by centrifugation and resuspension of the beads three times. Bound CPS1 protein was eluted in 6 mL of elution buffer (50 mM glycyl glycine pH 7.4, 500 mM NaCl, 1 mM TCEP, 10% glycerol and 250 mM imidazole) three times. Elution fractions were combined and concentrated using an Amicon Ultra centrifugation filter with a 10,000 molecular weight cut off. Imidazole was removed by repeated concentration and resuspension in storage buffer in the filter device (50 mM glycyl glycine pH 7.4, 500 mM NaCl, 1 mM TCEP and 20% glycerol). CPS1 was concentrated to a final concentration of ˜3 mg/mL before being aliquoted, flash frozen in liquid nitrogen and stored at −80° C.
CPS1 activity was measured and compounds profiled in an endpoint assay measuring the ATPase activity of CPS1 using the ADP-Glo kit from Promega. 50 nM CPS1 was incubated alone or with varying amounts of tested compound from DMSO stocks in assay buffer (50 mM HEPES pH 7.0, 12.5 mM KHCO3, 1.5 mM (NH4)2SO3, 5 mM MgCl2, 50 mM KCl, 1 mM TCEP, 0.01% TritonX 100, 0.0025% BSA and 0.2 mM NAG) for 20 min in a 3 μL volume in a 384-well plate (Corning Cat#3820). The final concentration of DMSO was 0.04%. The reaction was initiated by the addition of 10 μM ATP, bringing the final volume to 6 μL. After 60 min at room temperature, the reaction was terminated with 3 μL ADP-Glo reagent and incubated at room temperature for 30 min. 3 μL of kinase detection reagent was then added and luminescent signal measured on an Envision plate reader after 30 min.

Compound | IC50
COc1ccc(C(=O)N2[C@H](C)CN(C(=O)c3ccc4cc[nH]c4c3)C[C@H]2C)c(F)c1 [Compound 3, ((2R,6R)-4-(1H-Indole-6-carbonyl)-2,6-dimethylpiperazin-1-yl)(2-fluoro-4-methoxyphenyl)methanone] | 0.127 µM
COc1ccc(C(=O)N2[C@H](C)CN(C(=O)c3c[nH]c4c(C)cccc34)C[C@H]2C)c(F)c1 [Compound 56, ((2R,6R)-2,6-dimethyl-4-(7-methyl-1H-indole-3-carbonyl)piperazin-1-yl)(2-fluoro-4-methoxyphenyl)methanone] | 3.28 µM
COc1ccc(C(=O)N2[C@H](C)CN(C(=O)c3ccc4c(c3)NCC4)C[C@H]2C)c(F)c1 [Compound 69, ((3R,5R)-4-(2-fluoro-4-methoxybenzoyl)-3,5-dimethylpiperazin-1-yl)(indolin-6-yl)methanone] | 6.43 µM
COc1ccc(C(=O)N2C[C@@H](C)N(C(=O)c3ccc(-c4ccn(C)n4)cc3)[C@H](C)C2)c(F)c1 [Compound 80, ((3R,5R)-3,5-dimethyl-4-(4-(1-methyl-1H-pyrazol-3-yl)benzoyl)piperazin-1-yl)(2-fluoro-4-methoxyphenyl)methanone] | 22.9 µM
COc1ccc(C(=O)N2C[C@@H](C)N(C(=O)c3ccc(OCc4ccccc4)cc3F)[C@H](C)C2)c(F)c1 [Compound 24, ((3R,5R)-4-(4-(Benzyloxy)-2-fluorobenzoyl)-3,5-dimethylpiperazin-1-yl)(2-fluoro-4-methoxyphenyl)methanone] | 0.995 µM
COc1ccc(C(=O)N2C[C@@H](C)N(C(=O)c3ccc(C)c(O)c3)[C@H](C)C2)c(F)c1 [Compound 70] | 8.71 µM
COc1ccc(C(=O)N2C[C@@H](C)N(C(=O)c3ccc(S(C)(=O)=O)cc3F)[C@H](C)C2)c(F)c1 [Compound 76, ((3R,5R)-4-(2-fluoro-4-(methylsulfonyl)benzoyl)-3,5-dimethylpiperazin-1-yl)(2-fluoro-4-methoxyphenyl)methanone] | 16.7 µM
COc1ccc(C(=O)N2[C@H](C)CN(C(=O)c3cc4c(OC)ccc(OC)c4[nH]3)C[C@H]2C)c(F)c1 [Compound 82, (4,7-dimethoxy-1H-indol-2-yl)((3R,5R)-4-(2-fluoro-4-methoxybenzoyl)-3,5-dimethylpiperazin-1-yl)methanone] | 26.4 µM
COc1ccc(C(=O)N2[C@H](C)CN(C(=O)c3ccc4c(c3)N(C)CC4)C[C@H]2C)c(F)c1 [Compound 6, ((2R,6R)-2,6-Dimethyl-4-(1-methylindoline-6-carbonyl)piperazin-1-yl)(2-fluoro-4-methoxyphenyl)methanone] | 7.67 µM
COc1ccc(C(=O)N2[C@H](C)CN(C(=O)c3c[nH]c4c(F)cccc34)C[C@H]2C)c(F)c1 [Compound 58, (7-fluoro-1H-indol-3-yl)((3R,5R)-4-(2-fluoro-4-methoxybenzoyl)-3,5-dimethylpiperazin-1-yl)methanone] | 4.05 µM
COc1ccc(C(=O)N2[C@H](C)CN(C(=O)c3c[nH]c4ccc(Cl)cc34)C[C@H]2C)c(F)c1 [Compound 61, (5-chloro-1H-indol-3-yl)((3R,5R)-4-(2-fluoro-4-methoxybenzoyl)-3,5-dimethylpiperazin-1-yl)methanone] | 7.39 µM
COc1ccc(C(=O)N2[C@H](C)CN(C(=O)c3ccc(S(C)(=O)=O)cc3F)C[C@H]2C)c(F)c1 [Compound 102, ((2R,6R)-4-(2-fluoro-4-(methylsulfonyl)benzoyl)-2,6-dimethylpiperazin-1-yl)(2-fluoro-4-methoxyphenyl)methanone] | > 66.7 µM
COc1ccc(OC)c2[nH]c(C(=O)N3CCN(C(=O)Cc4c[nH]c5ccccc45)CC3)cc12 [Compound 64, 1-(4-(4,7-dimethoxy-1H-indole-2-carbonyl)piperazin-1-yl)-2-(1H-indol-3-yl)ethanone] | 3.72 µM

Second part, the compound after the results:

IC50 | Compound
6.34 µM | COc1ccc(C(=O)N2CC(C)N(C(=O)c3ccc(OC)cc3F)C(C)C2)c(F)c1 (stereo not drawn) [Compound 68, (2,6-dimethylpiperazine-1,4-diyl)bis((2-fluoro-4-methoxyphenyl)methanone)]
3.96 µM | COc1ccc(C(=O)N2[C@H](C)CN(C(=O)c3ccc(N(C)C)cc3F)C[C@H]2C)c(F)c1 [Compound 20, ((2R,6R)-4-(4-(Dimethylamino)-2-fluorobenzoyl)-2,6-dimethylpiperazin-1-yl)(2-fluoro-4-methoxyphenyl)methanone]
9.97 µM | COc1ccc(C(=O)N2CC(C)N(C(=O)c3ccc(OC)cc3F)CC2C)c(F)c1 (stereo not drawn) [Compound 71]
1.47 µM | COc1ccc(C(=O)N2C[C@@H](C)N(C(=O)c3ccc(OC(C)C)cc3F)[C@H](C)C2)c(F)c1 [Compound 30, ((3R,5R)-4-(2-fluoro-4-isopropoxybenzoyl)-3,5-dimethylpiperazin-1-yl)(2-fluoro-4-methoxyphenyl)methanone]
7.78 µM | COc1ccc(C(=O)N2CCN(C(=O)c3ccc(OC)cc3F)CC2)c(F)c1 [Compound 44, Piperazine-1,4-diylbis((2-fluoro-4-methoxyphenyl)methanone)]
2.3 µM | COc1ccc(C(=O)N2C[C@@H](C)N(C(=O)c3ccc(OC)c(F)c3)[C@H](C)C2)c(F)c1 [Compound 29, ((2R,6R)-4-(2-Fluoro-4-methoxybenzoyl)-2,6-dimethylpiperazin-1-yl)(3-fluoro-4-methoxyphenyl)methanone]
0.672 µM | COc1ccc(C(=O)N2[C@H](C)CN(C(=O)c3ccc(OC(F)(F)F)cc3F)C[C@H]2C)c(F)c1 [Compound 1, ((2R,6R)-4-(2-Fluoro-4-(trifluoromethoxy)benzoyl)-2,6-dimethylpiperazin-1-yl)(2-fluoro-4-methoxyphenyl)methanone]
0.139 µM | CCOc1ccc(C(=O)N2C[C@@H](C)N(C(=O)c3ccc(OC)cc3F)[C@H](C)C2)c(F)c1 [Compound 5, ((2R,6R)-4-(4-Ethoxy-2-fluorobenzoyl)-2,6-dimethylpiperazin-1-yl)(2-fluoro-4-methoxyphenyl)methanone]
